Assay results taken from publication PMC9664868, “Dephospho-Coenzyme A Kinase Is an Exploitable Drug Target against Plasmodium falciparum: Identification of Selective Inhibitors by High-Throughput Screening of a Large Chemical Compound Library” (Antimicrobial Agents and Chemotherapy, 2022).
Read-outs that look alike come from different tables or passages of the source.

Assays:
[1] = biological target: PfDPCK (Plasmodium falciparum, UniProt Q8IL34); test: PfDPCK inhibition, enzyme-coupled fluorescence ADP detection assay (HTS and IC50 determination); assay type: biochemical
Protocol: High-throughput screening against recombinant PfDPCK was performed using the Drug Discovery Initiative (DDI) full library, available from The University of Tokyo, composed of approximately 210,000 compounds. The primary assay was performed on 1,536-well white plate format with a final volume of 2 μL/well, containing 10 μM test compounds using a Multidrop Combi reagent dispenser (Thermo Fisher Scientific, Waltham, MA). The reaction was conducted in the assay buffer described above with 100 μM ATP and 50 μM dephospho-CoA. The assay was carried out at room temperature for 4 h in a closed plastic container with wet tissues. The reaction was stopped, and produced ADP was quantified using an enzyme-coupled fluorescence ADP detection assay, using PHERAstar microplate reader (BMG Labtech, Offenburg, Germany) with excitation at 540 nm and emission at 590 nm, as previously described ([17]). The inhibition level was calculated as the percentage inhibition of DPCK activity with each compound compared to the activity with only dimethyl sulfoxide (DMSO) as control (no inhibition) and that with no enzyme as 100% inhibition. IC50 values of the hit compounds were determined under the same assay conditions for the screening: Z′ factor, signal-to-background ratio (S/B), signal-to-noise ratio (S/N), and coefficient of variation (CV) were calculated to estimate the quality of screening system as previously described ([18], [38]).
The primary hits were reassayed in quadruplicate (n = 4) as in the primary screening. We next tested the confirmed secondary hits to exclude false positives that inhibit coupled fluorescence assay, but not PfDPCK. After exclusion of false positives, all tertiary hits were tested against human HsCOASY in the counterassay to exclude compounds that inhibit both PfDPCK and HsCOASY. The compounds showing >10% inhibition against HsCOASY were excluded from further studies. The IC50 values of the hit compounds were determined under the same assay conditions described as above for the primary screening, with the serially diluted compounds at 20, 10, 2.5, 0.5, and 0.1 μM at final concentrations. The assay was conducted in quadruplicate for each dilution, and IC50 values were calculated using GraphPad Software (San Diego, California USA).

[2] = test system: P. falciparum drug-sensitive 3D7 strain; test: Erythrocytic-stage parasite growth inhibition, diaphorase-coupled LDH assay, 3D7; assay type: cell-based, Plasmodium falciparum; settings: for Selectivity index IC50 (HepG2/3D7): HepG2 IC50 / 3D7 IC50
Protocol: (§1) Selected hit compounds were also tested against erythrocytic-stage parasites of P. falciparum drug-sensitive 3D7 and drug-resistant Dd2 strains ([39]). For the phenotypic assay, parasite cultures were synchronized with 5% (wt/vol) D-sorbitol as previously described ([40]). A synchronized culture containing ring-stage parasites of 0.3% parasitemia was initiated with a culture volume of 25 μL/well on a 384-well plate. A series of diluted compounds (at final concentrations of 50, 10, 2, 0.4, and 0.08 μM) were used to calculate IC50 values. Mefloquine at 50 μM and atovaquone at 20 μM were used as no-growth control (100% inhibition). After 72 h of incubation, parasite growth was measured by diaphorase-coupled lactate dehydrogenase (LDH) assay as previously described ([41]). Absorbance at 650 nm was measured using SpectraMax Paradigm multimode microplate reader (Molecular Devices, San Jose, CA, USA). The IC50 values were calculated as described above.

[3] = test system: P. falciparum drug-resistant Dd2 strain; test: Erythrocytic-stage parasite growth inhibition, diaphorase-coupled LDH assay, Dd2; assay type: cell-based, Plasmodium falciparum
Protocol: as §1

[4] = test system: HepG2 cell line; test: Cytotoxicity assay (Cell Counting Kit-8); assay type: cell-based, human
Protocol: Cytotoxicity against human cells was evaluated using the human liver carcinoma HepG2 cell line. HepG2 cells were cultured in D-MED supplemented with 4 mM L-glutamine and 10% fetal bovine serum (FBS) in a 75-cm^2 flask (Violamo) at 37°C. For the cytotoxicity assay, HepG2 cells in semiconfluent state were detached from the flask by incubating the cells with 5 mL D-MEM containing 0.25% trypsin-EDTA. After detachment, HepG2 cells were resuspended in D-MEM-supplemented L-glutamine and FBS, and cell viability was evaluated by incubating cells with 0.4% Trypan blue on a hemocytometer. An approximately 50-μL suspension containing 3,000 cells was dispensed into each well on a 384-well clear-bottom plate using a Multidrop Combi dispenser. Compounds dissolved in DMSO had been dispensed into wells to yield final concentrations of 100, 20, 4, 0.8, and 0.2 μM before cells were added. After cells were added to the plates, they were cultured at 37°C under 5% CO2. After 48 h cultivation, 5 μL of Cell Counting Kit-8 (Dojindo, Japan) was added, and the plates were further incubated for 2 h to assess cell growth and survival.

[5] = recombinant enzyme, means ± SEMs, read-out: IC50 (μM) of: PfDPCK
[6] = Plasmodium falciparum, drug-sensitive 3D7, 72 h, means ± SEMs, read-out: IC50 (μM) of: Pf cell 3D7
[7] = Plasmodium falciparum, drug-resistant Dd2, 72 h, means ± SEMs, read-out: IC50 (μM) of: Pf cell Dd2
[8] = Homo sapiens, HepG2, 48 h, means ± SEMs, read-out: IC50 (μM) of: HepG2
[9] = Homo sapiens, HepG2, ND (maximum concentration tested 100 μM), read-out: IC50 (μM) of: HepG2
[10] = Plasmodium falciparum, 3D7, 72 h, read-out: IC50 (μM) of: Pf cell 3D7
[11] = Plasmodium falciparum, DD2, 72 h, read-out: IC50 (μM) of: Pf cell Dd2
[12] = Homo sapiens, HepG2, read-out: IC50 (μM) of: HepG2
[13] = Table 2, PfDPCK inhibitor scaffolds Gr4, Gr5, Gr8, read-out: IC50
[14] = Plasmodium falciparum, 3D7, Table S1, means ± SEM, read-out: IC50 (μM) Pf cell 3D7
[15] = Plasmodium falciparum, DD2, Table S1, means ± SEM, read-out: IC50 (μM) Pf cell Dd2
[16] = Homo sapiens, HepG2, Table S1, means ± SEM, read-out: IC50 (μM) HepG2

Sequence of PfDPCK (Q8IL34 entry or part of it): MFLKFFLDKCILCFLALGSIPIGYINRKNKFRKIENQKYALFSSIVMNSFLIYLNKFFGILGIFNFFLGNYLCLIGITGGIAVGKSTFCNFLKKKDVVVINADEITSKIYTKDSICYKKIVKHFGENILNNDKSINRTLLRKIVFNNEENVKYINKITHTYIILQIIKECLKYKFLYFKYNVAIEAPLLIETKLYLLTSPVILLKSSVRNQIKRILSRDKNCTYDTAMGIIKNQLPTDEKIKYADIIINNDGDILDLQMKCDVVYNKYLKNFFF

SMILES	IC50 [1, 5]	Selectivity index IC50 (HepG2/3D7) [2]	IC50 [2, 6]	Selectivity index IC50 (HepG2/Dd2) [3]	IC50 [3, 7]	IC50 [4, 8]	other results
Cc1cc(-c2csc(NC3CC3)n2)c(C)n1CCC1=CCCCC1 [Compound A-19]	2.55 ± 0.03 µM	22.4	3.64 ± 0.04 µM	30.8	2.65 ± 0.13 µM	81.5 µM	
Cc1cn2c(/C=C3\C(=O)N(C)c4ccccc43)c(C)nc2s1 [Compound A-51]	7.05 ± 0.08 µM	>6.3	15.76 ± 0.12 µM	>166.6	0.62 ± 0.23 µM	> 100 µM	
CCCn1c(C)cc(-c2csc(NC(=O)C3CC3)n2)c1C [Compound A-4]	0.52 ± 0.09 µM		4.45 ± 0.05 µM		1.59 ± 0.23 µM		IC50 [4, 9]: > 100 µM
O=C(O)C1NC(c2ccncc2)C23c4c5c6c7c8c9c(c%10c%11c2c2c4c4c%12c5c5c6c6c8c8c%13c9c9c%10c%10c%11c%11c2c2c4c4c%12c%12c5c5c6c8c6c8c%13c9c9c%10c%10c%11c2c2c4c4c%12c5c6c5c8c9c%10c2c45)C713 (stereo not shown) [Compound A-45]							IC50 [1]: 6.68 ± 0.24 µM; IC50 [2, 10]: 15.6 ± 0.61 µM; IC50 [3, 11]: 1.29 ± 0.02 µM; IC50 [4, 12]: > 100 µM
CC1(C)NC(C(=O)O)C23c4c5c6c7c8c9c(c%10c%11c2c2c4c4c%12c5c5c6c6c8c8c%13c9c9c%10c%10c%11c%11c2c2c4c4c%12c%12c5c5c6c8c6c8c%13c9c9c%10c%10c%11c2c2c4c4c%12c5c6c5c8c9c%10c2c45)C713 (stereo not shown) [Compound A-31]							IC50 [1]: 3.83 ± 0.04 µM; IC50 [2, 10]: > 50 µM; IC50 [3, 11]: 0.67 ± 0.02 µM; IC50 [4, 12]: > 100 µM
CCN(CC)CCn1c(=N)n(CC(=O)c2cc(C(C)(C)C)c(O)c(C(C)(C)C)c2)c2ccccc21 [Compound A-30]	3.83 ± 0.03 µM	45.1	0.08 ± 0.01 µM	43.5	0.09 ± 0.06 µM	3.75 ± 3.55 µM	
O=C1C(O)=C([C@H]2CC[C@H](c3ccc(Cl)cc3)CC2)C(=O)c2ccccc21 [Atovaquone, reference compound]		363,181		499,375		79.9 ± 1.79 µM	IC50 ([2]; Plasmodium falciparum, drug-sensitive 3D7, value in nM, read-out: IC50 of: Pf cell 3D7): 0.00022 ± 3e-05 µM; IC50 ([3]; Plasmodium falciparum, drug-resistant Dd2, value in nM, read-out: IC50 of: Pf cell Dd2): 0.00016 ± 2.8e-05 µM
Cc1cccc(-n2cc(-c3ccccc3)c3c(NCCOCCO)ncnc32)c1 [Compound A-42]							IC50 [1, 13]: 6.14 ± 0.28 µM; IC50 [2, 14]: 38.2 ± 2.91 µM; IC50 [3, 15]: 49.7 ± 3.22 µM; IC50 [4, 16]: 63.2 ± 3.48 µM
CCOc1ccc(-n2cc(-c3ccccc3)c3c(NCCN(C)C)ncnc32)cc1 [Compound A-17]							IC50 [1, 13]: 2.15 ± 0.07 µM; IC50 [2, 14]: 22.9 ± 1.87 µM; IC50 [3, 15]: 2.7 ± 0.44 µM; IC50 [4, 16]: 8.45 ± 0.35 µM
O=Cc1cc(C23CC4CC(CC(C4)C2)C3)cc([N+](=O)[O-])c1O [Compound A-63]	8.69 ± 0.01 µM	>16.6	6.04 ± 0.05 µM	>142.8	0.7 ± 0.22 µM	> 100 µM	
Cc1cc(Nc2cc3ccccc3cc2O)n2ncnc2n1 [Compound A-25]	3.45 ± 0.07 µM		1.64 ± 0.03 µM		> 50 µM		IC50 [4, 9]: > 100 µM
Cc1ccc(-c2nnc(Nc3ccc(O)cc3)c3ccccc23)cc1S(=O)(=O)NCCO [Compound A-26]	3.5 ± 0.04 µM		14.45 ± 0.08 µM		3.41 ± 1.22 µM		IC50 [4, 9]: > 100 µM
CCOC(=O)CN1C(C(=O)OCC)C23c4c5c6c7c8c9c(c%10c%11c2c2c4c4c%12c5c5c6c6c8c8c%13c9c9c%10c%10c%11c%11c2c2c4c4c%12c%12c5c5c6c8c6c8c%13c9c9c%10c%10c%11c2c2c4c4c%12c5c6c5c8c9c%10c2c45)C73C1c1cc[n+](C)cc1 (stereo not shown) [Compound A-23]							IC50 [1]: 3.31 ± 0.02 µM; IC50 ([2]; drug-sensitive 3D7, 72 h, means ± SEMs, read-out: IC50 (μM) of: Pf cell 3D7): 4.47 ± 0.12 µM; IC50 ([3]; drug-resistant Dd2, 72 h, means ± SEMs, read-out: IC50 (μM) of: Pf cell Dd2): 7.42 ± 0.46 µM; IC50 ([4]; ND (maximum concentration tested 100 μM), read-out: IC50 (μM) of: HepG2): > 100 µM
COc1ccc(NC(C)=O)cc1/N=C/c1cc(Br)cc(Br)c1O [Compound A-38]	4.87 ± 0.05 µM	>3.4	29.06 ± 0.2 µM	>142.8	0.7 ± 0.1 µM	> 100 µM	
Cc1ccc(S(=O)(=O)Nc2cc(Cl)c(O)c3ccccc23)c(C)c1 [Compound A-16]	2.09 ± 0.04 µM	17.9	2.21 ± 0.07 µM	171.7	0.23 ± 0.01 µM	39.6 ± 2.3 µM	
CCNC(=N)SCc1c(C)c(C)c(C)c(C)c1C [Compound A-7]	1.09 ± 0.03 µM	8.2	1.1 ± 0.11 µM	69.5	0.13 ± 0.01 µM	9.04 ± 0.01 µM	
Cc1cc(-c2csc(-c3ccsc3)n2)c(C)n1CCCCCC(=O)O [Compound A-96]							IC50 [1, 13]: 14.7 ± 0.28 µM; IC50 [2, 14]: 31 ± 2.1 µM; IC50 [3, 15]: 27.7 ± 2.6 µM
CCOC(=O)C1NC(c2ccc[n+](C)c2)C23c4c5c6c7c8c9c(c%10c%11c2c2c4c4c%12c5c5c6c6c8c8c%13c9c9c%10c%10c%11c%11c2c2c4c4c%12c%12c5c5c6c8c6c8c%13c9c9c%10c%10c%11c2c2c4c4c%12c5c6c5c8c9c%10c2c45)C713 (stereo not shown) [Compound A-22]							IC50 [1]: 3.25 ± 0.02 µM; IC50 [2, 10]: 30.6 ± 1.5 µM; IC50 [3, 11]: 6.32 ± 0.35 µM; IC50 [4, 12]: > 100 µM
COC(C(=O)N/N=C/c1ccccc1)c1ccccc1 (stereo not shown) [Compound A-50]	6.99 ± 0.13 µM		> 50 µM		6.62 ± 1.12 µM		IC50 [4, 9]: > 100 µM
CNc1nc(NC(C)(C)C)nc(NC(C)(C)C)n1 [Compound A-2]	0.4 ± 0.07 µM	>23	4.43 ± 0.04 µM	>102	0.98 ± 0.5 µM	> 100 µM	
Nc1nc(Nc2cccc(F)c2)nc2ccccc12 [Compound A-13]	1.69 ± 0.05 µM		1.3 ± 0.06 µM		3.4 ± 0.35 µM		IC50 [4, 9]: > 100 µM
S=C(NCCc1ccccc1)NNc1nc2ccccc2[nH]1 [Compound A-65]	9.21 ± 0.12 µM		4.4 ± 0.05 µM		0.36 ± 0.1 µM		IC50 [4, 9]: > 100 µM
OC(c1cc(C(F)(F)F)nc2c(C(F)(F)F)cccc12)C1CCCCN1 (stereo not shown) [Mefloquine, reference compound]		133	0.013 ± 0.006 µM	8.8	0.19 ± 0.07 µM	1.73 ± 0.7 µM	
